Assay results: patent US7166296B2, “Pharmaceutical formulations and ligands for use therein; mimetics for UEA-1” (Sarlan, Ltd., priority 2001, dated 2007)
≈ marks a conversion by molar mass, not a printed value.

Legend:
[1] = tested on: UEA-1 binding sites on Caco-2 cell membrane preparations; experiment: Single tier competition assay: inhibition of biotinylated UEA-1 binding, compound and biotinylated UEA-1 incubated together; design: species or system human
Procedure: (§1) The epithelial cell binding ability of compounds and mixtures obtained from synthetic combinatorial libraries was determined by competition assays. These assays were set up to measure the inhibition of binding of biotinylated UEA-1 to membrane preparations of the epithelial cell line Caco-2 (colon carcinoma cells-2), by compounds and mixtures of the combinatorial libraries. This cell line is a conventional model for epithelial cells.
(§2) Two competition inhibition assays were used in this case, namely single tier and two tier assays. These assays differed from each other in that in the single tier assay, the mixtures/compounds and the biotinylated UEA-1 were incubated together with the Caco-2 cell membrane preparations, while in case of the two-tier assay, the mixture/compounds were allowed to incubate alone with the cell membranes in the absence of biotinylated UEA-1, which was added in the next step. Addition of the extra step in the two-tier assay was to ensure that the compounds inhibiting the binding of biotinylated UEA-1 to the Caco-2 cell membranes were doing so by themselves binding to surface receptors on the Caco-2 cells and not to the biotinylated UEA-1. Each assay will be described in detail.
(§3) • 1. Confluent Caco-2 cell monolayers (grown in 75 cm^2 flasks for up to 1 week at 37° C. and 5% CO2) were washed twice in Dulbecco's PBS (DPBS). • 2. Cell monolayers were treated with 10 mM EDTA-DPBS for 5–10 min at 37° C. and cells were harvested by centrifugation at 1000 rpm for 5 min. • 3. Cells were washed 3 times in DPBS. • 4. […] The cells were homogenised for 30 sec. • 6. The homogenates were centrifuged in hard walled tubes at 40,000 rpm for 45 min at 4° C. • 7. […] The supernatant was removed and stored on ice. The procedure was repeated adding the second supernatant to the first. • 8. The protein concentration was determined using e.g. a Bio-Rad protein assay. • 9. All fractions were stored at −80° C. prior to use. Single Tier Assays: • 1. 96-well microtiter plates were coated with membrane preparations of Caco-2 cells either by allowing them to incubate on the plates for 2½ hours at room temperature or by incubating them overnight at 4° C. 100 μl of 10 μg/ml (in 0.05 M carbonate buffer, pH 9.6) of membrane preparation was added to each well. • 2. The plates were flicked out, patted dry and blocked with bovine serum albumin (BSA)/DPBS (200 μl/well) for 1 to 4 hours at room temperature after which they were washed three times in water. • 3. […] Control wells were also set up in which the Caco-2 cell membrane preparations were incubated with unconjugated UEA-1. […] Following overnight incubation the plates were washed thoroughly (3–6 times). The plates were flicked out, patted dry and biotinylated UEA-1 was detected with commercial Streptavidin conjugated to horseradish peroxidase (HRP) (CalBiochem). […] The plates were left to incubate for an hour at room temperature. • 6. The plates were then washed 3–6 times and the biotin-streptavidin binding was detected by adding an HRP substrate OPD (orthophenyl diamine) to each well. 100 μl/well of this substrate at a final concentration of 1.6 mg/ml was added to each well. Before adding to the wells, this substrate was activated by addition of 50 μl of 3% H2O2 per plate and the reaction was allowed to develop in the dark. • 7. The reaction was stopped by adding 50 μl of 4 N H2SO4 to each well after approximately 5–10 minutes or when sufficient colour had developed. The OD490 (absorbance at 490 nm) of each well was measured using a conventional 96 well plate reading spectrophotometer. Two Tier Assays: • 1. 96 well plates were coated with Caco-2 cell membrane preparations in the same manner as described in the single tier assay. • 2. […] 100 μl at these final concentrations were added to each well. • 4. The plates were then left to incubate overnight, a step that would allow the mixtures and compounds to interact with the Caco-2 cell membranes without the presence of the competitor (biotinylated UEA-1) itself. • 5. […]

[2] = tested on: UEA-1 binding sites on Caco-2 cell membrane preparations; experiment: Two tier competition assay: compound incubated alone with membranes, biotinylated UEA-1 added in next step; design: species or system human
Procedure: as §1, §2, §3

[3] = Table 8, galloyl constructs, read-out: IC 50 (uM) 1st tier (converted)
[4] = library MSI 27, read-out: Single Tier Assay IC50
[5] = Table 8, galloyl constructs, read-out: IC 50 (uM) 2nd tier
[6] = library MSI 27, read-out: Two Tier Assay IC50

Row | IC50 [1, 4] [µM] | IC50 [2, 6] [µM] | Compound | IC 50 (ug/ml) 1st tier ([1]; Table 8, galloyl constructs) [µg/mL] | IC50 [1, 3] [µM] | Single Tier Assay IC50 ([1]; library MSI 27) [µg/mL] | IC 50 (ug/ml) 2nd tier ([2]; Table 8, galloyl constructs) [µg/mL] | IC50 [2, 5] [µM] | Two Tier Assay IC50 ([2]; library MSI 27) [µg/mL]
1 | 80 | 74.2 | COc1cc(C(=O)NCCCCC(NC(=O)C(CCCCNC(=O)c2cc(OC)c(O)c(OC)c2)NC(=O)C(CCCCNC(=O)c2cc(OC)c(O)c(OC)c2)NC(=O)c2cc(OC)c(O)c(OC)c2)C(N)=O)cc(OC)c1O (stereo not shown) [Cpd 41] | – | – | 89.77 | – | – | 83.26
2 | 186 | 186 | CCOc1cc(C(=O)NCCCC[C@@H](NC(=O)[C@@H](CCCCNC(=O)c2cc(OCC)c(OCC)c(OCC)c2)NC(=O)[C@@H](CCCCNC(=O)c2cc(OCC)c(OCC)c(OCC)c2)NC(=O)c2cc(OCC)c(OCC)c(OCC)c2)C(N)=O)cc(OCC)c1OCC [Cpd 43] | – | – | – | – | – | –
3 | 283 | 283 | NC(=O)[C@@H](CCCCNC(=O)c1ccc(O)cc1)NC(=O)[C@@H](CCCCNC(=O)c1ccc(O)cc1)NC(=O)[C@@H](CCCCNC(=O)c1ccc(O)cc1)NC(=O)c1ccc(O)cc1 [Cpd 47] | – | – | – | – | – | –
4 | 264 | 264 | NC(=O)[C@@H](CCCCNC(=O)c1cc(O)cc(O)c1)NC(=O)[C@@H](CCCCNC(=O)c1cc(O)cc(O)c1)NC(=O)[C@@H](CCCCNC(=O)c1cc(O)cc(O)c1)NC(=O)c1cc(O)cc(O)c1 [Cpd 48] | – | – | – | – | – | –
5 | 120 | 111 | COc1cc(C(=O)NCCCCC(NC(=O)C(CCCCNC(=O)c2cc(OC)c(O)c(OC)c2)NC(=O)C(CCCCNC(=O)c2cc(OC)c(O)c(OC)c2)NC(C)=O)C(N)=O)cc(OC)c1O (stereo not shown) [Cpd 49] | – | – | 118.00 | – | – | 108.80
6 | 217 | 217 | CCOc1cc(C(=O)NCCCCC(NC(=O)C(CCCCNC(=O)c2cc(OCC)c(OCC)c(OCC)c2)NC(=O)C(CCCCNC(=O)c2cc(OCC)c(OCC)c(OCC)c2)NC(C)=O)C(N)=O)cc(OCC)c1OCC (stereo not shown) [Cpd 51] | – | – | – | – | – | –
7 | 75.1 | 95.7 | CCOC(=O)Oc1c(OC)cc(C(=O)NCCCCC(NC(=O)C(CCCCNC(=O)c2cc(OC)c(OC(=O)OCC)c(OC)c2)NC(=O)C(CCCCNC(=O)c2cc(OC)c(OC(=O)OCC)c(OC)c2)NC(C)=O)C(N)=O)cc1OC (stereo not shown) [Cpd 53] | – | – | 90.15 | – | – | 114.80
8 | 311 | 311 | CC(=O)NC(CCCCNC(=O)c1ccc(O)cc1)C(=O)NC(CCCCNC(=O)c1ccc(O)cc1)C(=O)NC(CCCCNC(=O)c1ccc(O)cc1)C(N)=O (stereo not shown) [Cpd 55] | – | – | – | – | – | –
9 | 147 | 147 | CC(=O)NC(CCCCNC(=O)c1cc(O)cc(O)c1)C(=O)NC(CCCCNC(=O)c1cc(O)cc(O)c1)C(=O)NC(CCCCNC(=O)c1cc(O)cc(O)c1)C(N)=O (stereo not shown) [Cpd 56] | – | – | 125.00 | – | – | 125.00

Second part, the molecule before the results:

Row | Compound | IC50 [1, 4] [µM] | IC50 [2, 6] [µM] | IC 50 (ug/ml) 1st tier ([1]; Table 8, galloyl constructs) [µg/mL] | IC50 [1, 3] [µM] | Single Tier Assay IC50 ([1]; library MSI 27) [µg/mL] | IC 50 (ug/ml) 2nd tier ([2]; Table 8, galloyl constructs) [µg/mL] | IC50 [2, 5] [µM] | Two Tier Assay IC50 ([2]; library MSI 27) [µg/mL]
10 | NC(=O)C(CCCCNC(=O)c1cc(O)c(O)c(O)c1)NC(=O)C(CCCCNC(=O)c1cc(O)c(O)c(O)c1)NC(=O)c1cc(O)c(O)c(O)c1 (stereo not shown) [Cpd 30] | 35.5 | 11.5 | 14 (≈ 19.2 µM) | 19 | 25.89 | 5 (≈ 6.85 µM) | 7 | 8.36
11 | NC(=O)C(CCCCNC(=O)c1ccc(O)cc1)NC(=O)C(CCCCNC(=O)c1ccc(O)cc1)NC(=O)c1ccc(O)cc1 (stereo not shown) [Cpd 31] | 395 | 395 | – | – | – | – | – | –
12 | NC(=O)C(CCCCNC(=O)c1cc(O)cc(O)c1)NC(=O)C(CCCCNC(=O)c1cc(O)cc(O)c1)NC(=O)c1cc(O)cc(O)c1 (stereo not shown) [Cpd 32] | 367 | 367 | – | – | – | – | – | –
13 | COc1cc(C(=O)NCCCCC(NC(=O)C(CCCCNC(=O)c2cc(OC)c(O)c(OC)c2)NC(C)=O)C(N)=O)cc(OC)c1O (stereo not shown) [Cpd 33] | 145 | 107 | – | – | 97.85 | – | – | 72.17
14 | COc1ccc(C(=O)NCCCCC(NC(=O)C(CCCCNC(=O)c2ccc(OC)c(OC)c2)NC(C)=O)C(N)=O)cc1OC (stereo not shown) [Cpd 34] | 189 | 135 | – | – | 121.40 | – | – | 87.01
15 | CCOc1cc(C(=O)NCCCCC(NC(=O)C(CCCCNC(=O)c2cc(OCC)c(OCC)c(OCC)c2)NC(C)=O)C(N)=O)cc(OCC)c1OCC (stereo not shown) [Cpd 35] | 317 | 317 | – | – | – | – | – | –
16 | COc1cc(C(=O)NCCCCC(NC(=O)C(CCCCNC(=O)c2cc(OC)c(OC)c(OC)c2)NC(C)=O)C(N)=O)cc(OC)c1OC (stereo not shown) [Cpd 36] | 355 | 178 | – | – | – | – | – | 125.00
17 | CC(=O)NC(CCCCNC(=O)c1cc(O)c(O)c(O)c1)C(=O)NC(CCCCNC(=O)c1cc(O)c(O)c(O)c1)C(N)=O (stereo not shown) [Cpd 38] | 142 | 87.6 | 54 (≈ 87.1 µM) | 86 | 87.78 | 48 (≈ 77.5 µM) | 77 | 54.27
18 | CC(=O)NC(CCCCNC(=O)c1ccc(O)cc1)C(=O)NC(CCCCNC(=O)c1ccc(O)cc1)C(N)=O (stereo not shown) [Cpd 39] | 450 | 285 | – | – | – | – | – | 158.60
19 | CC(=O)NC(CCCCNC(=O)c1cc(O)cc(O)c1)C(=O)NC(CCCCNC(=O)c1cc(O)cc(O)c1)C(N)=O (stereo not shown) [Cpd 40] | 425 | 425 | – | – | – | – | – | –
20 | COc1ccc(C(=O)NCCCC[C@@H](NC(=O)[C@@H](CCCCNC(=O)c2ccc(OC)c(OC)c2)NC(=O)[C@@H](CCCCNC(=O)c2ccc(OC)c(OC)c2)NC(=O)c2ccc(OC)c(OC)c2)C(N)=O)cc1OC [Cpd 42] | 101 | 108 | – | – | 107.00 | – | – | 113.80
21 | COc1cc(C(=O)NCCCC[C@@H](NC(=O)[C@@H](CCCCNC(=O)c2cc(OC)c(OC)c(OC)c2)NC(=O)[C@@H](CCCCNC(=O)c2cc(OC)c(OC)c(OC)c2)NC(=O)c2cc(OC)c(OC)c(OC)c2)C(N)=O)cc(OC)c1OC [Cpd 44] | 212 | 212 | – | – | – | – | – | –
22 | NC(=O)C(CCCCNC(=O)c1cc(O)c(O)c(O)c1)NC(=O)C(CCCCNC(=O)c1cc(O)c(O)c(O)c1)NC(=O)C(CCCCNC(=O)c1cc(O)c(O)c(O)c1)NC(=O)c1cc(O)c(O)c(O)c1 (stereo not shown) [Cpd 46] | 14.8 | 1.98 | 8 (≈ 7.92 µM) | 8 | 14.92 | 0.6 (≈ 0.594 µM) | 0.6 | 2.00
23 | COc1ccc(C(=O)NCCCCC(NC(=O)C(CCCCNC(=O)c2ccc(OC)c(OC)c2)NC(=O)C(CCCCNC(=O)c2ccc(OC)c(OC)c2)NC(C)=O)C(N)=O)cc1OC (stereo not shown) [Cpd 50] | 82.4 | 45.7 | – | – | 77.09 | – | – | 42.79
24 | COc1cc(C(=O)NCCCCC(NC(=O)C(CCCCNC(=O)c2cc(OC)c(OC)c(OC)c2)NC(=O)C(CCCCNC(=O)c2cc(OC)c(OC)c(OC)c2)NC(C)=O)C(N)=O)cc(OC)c1OC (stereo not shown) [Cpd 52] | 170 | 221 | – | – | 174.80 | – | – | 226.70
25 | CC(=O)NC(CCCCNC(=O)c1cc(O)c(O)c(O)c1)C(=O)NC(CCCCNC(=O)c1cc(O)c(O)c(O)c1)C(=O)NC(CCCCNC(=O)c1cc(O)c(O)c(O)c1)C(N)=O (stereo not shown) [Cpd 54] | 7.61 | 3.33 | 4 (≈ 4.44 µM) | 5 | 6.85 | 2 (≈ 2.22 µM) | 3 | 3.00
